Measured values reported in patent US10160771B2, “Hepatitis C virus inhibitors and uses thereof in preparation of drugs” (priority 2014, dated 2018).

Columns and labels:
[1] = tested on: HCV genotype 1a (HCV-1a) replicon cells; test: HCV genotype 1a replicon luciferase assay (EC50); assay type: cell-based, hepatitis C virus genotype 1a (H77 clone); conditions: Hepatitis C virus, 72 h, 3 days, luciferase (Bright-Glo)
In short: (§1)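 Compounds were dispensed as 5-fold, 6-point series (highest 100, 10 or 1 nM; 0.5% DMSO) in duplicate. Replicon cells expressing luciferase (H77-derived for 1a, Con1-derived for 1b) were added at 8000 per well and grown 3 days. Luciferase activity was then measured and EC50 fitted.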

[2] = tested on: HCV genotype 1b (HCV-1b) replicon cells; test: HCV genotype 1b replicon luciferase assay (EC50); assay type: cell-based, hepatitis C virus genotype 1b (Con1 clone); conditions: Hepatitis C virus, 72 h, 3 days, luciferase (Bright-Glo)
In short: as §1

[3] = Cell Titer-fluor cell activity assay in HCV-1b replicon cells (CC50); assay type: cell-based
In short: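 Con1 genotype 1b replicon cells (E1202G, T1280I, K1846T adaptive mutations), 8000 cells/well, exposed to 6-point 5-fold dilutions from 100, 10 or 1 nM top concentration in 0.5% DMSO, duplicate wells, 3 days at 37 °C. Viability read by Cell Titer-fluor (Ex 405/Em 515 nm) after 30 min; CC50 from nonlinear fit of inhibition %.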

Row | Compound | EC50 [1] [nM] | EC50 [2] [nM] | CC50 at 3 days [3] [nM]
1 | COC(=O)N[C@H](C(=O)N1CCC[C@H]1c1ncc(-c2ccc(-c3ccc(-c4cnc(C5C6CCC(C6)[C@H]5C(=O)NCc5cnccn5)[nH]4)cc3)cc2)[nH]1)[C@@H](C)OC (stereo partly drawn) [AA_268_B] | 1 to 10 | 0.001 to 0.1 | > 1
2 | COC(=O)N[C@H](C(=O)N1CCC[C@H]1c1ncc(-c2ccc(-c3ccc(-c4cnc([C@@H]5[C@H]6CC[C@H](C6)[C@H]5C(=O)N[C@@H](C)c5cnccn5)[nH]4)cc3)cc2)[nH]1)C(C)C [AA_270_ENDOA2_A] | 0.001 to 0.1 | 0.001 to 0.1 | > 1
3 | COC(=O)N[C@H](C(=O)N1CCC[C@H]1c1ncc(-c2ccc(-c3ccc(-c4cnc([C@@H]5[C@H]6CC[C@H](C6)[C@H]5C(=O)N[C@H](C)c5cnccn5)[nH]4)cc3)cc2)[nH]1)C(C)C [AA_270_ENDOA2_B] | 1 to 10 | 0.001 to 0.1 | > 1
4 | COC(=O)N[C@H](C(=O)N1CCC[C@H]1c1ncc(-c2ccc(-c3ccc(-c4cnc([C@@H]5[C@H]6CC[C@H](C6)[C@H]5C(=O)NC5(c6ccccc6)CC5)[nH]4)cc3)cc2)[nH]1)C(C)C [AA_273_ENDOA2] | 1 to 10 | 0.001 to 0.1 | > 1
5 | COC(=O)N[C@H](C(=O)N1CCCC1c1ncc(-c2ccc(-c3ccc(-c4cnc([C@@H]5C6CCC(C6)C5C(=O)NCc5cccnc5)[nH]4)cc3)c(F)c2)[nH]1)[C@@H](C)OC (stereo partly drawn) [AA_280_A] | 1 to 10 | 0.001 to 0.1 | > 1
6 | COC(=O)N[C@H](C(=O)N1CCCC1c1ncc(-c2ccc(-c3ccc(-c4cnc([C@H]5C6CCC(C6)C5C(=O)NCc5cccnc5)[nH]4)cc3)c(F)c2)[nH]1)[C@@H](C)OC (stereo partly drawn) [AA_280_B] | 0.101 to 1 | 0.001 to 0.1 | > 1
7 | COC(=O)N[C@H](C(=O)N1CCC[C@H]1c1ncc(-c2ccc(-c3ccc(-c4cnc(C5C6CCC(C6)[C@H]5C(=O)NC(C)c5cnccn5)[nH]4)cc3)cc2)[nH]1)[C@@H](C)OC (stereo partly drawn) [AA_281_B] | 0.101 to 1 | 0.001 to 0.1 | > 1
8 | CNC(=O)[C@@H](NC(=O)[C@@H]1[C@@H]2CC[C@@H](C2)[C@H]1c1ncc(-c2ccc(-c3ccc(-c4cnc([C@@H]5CCCN5C(=O)[C@@H](NC(=O)OC)C(C)C)[nH]4)cc3)cc2)[nH]1)C(C)C [AA_298_ENDOA2] | 1 to 10 | 0.001 to 0.1 | > 1
9 | COC(=O)N[C@H](C(=O)N1CCC[C@H]1c1ncc(-c2ccc(-c3ccc(-c4cnc([C@@H]5[C@H]6CC[C@H](C6)[C@H]5C(=O)NN(C(=O)OC)C(C)C)[nH]4)cc3)cc2)[nH]1)C(C)C [AA_299_ENDOA2] | 10 to 100 | 0.001 to 0.1 | > 1
10 | COC(=O)N[C@H](C(=O)N1CCC[C@H]1c1ncc(-c2ccc(-c3ccc(-c4cnc([C@@H]5[C@H]6CC[C@H](C6)[C@H]5C(=O)NN(C(C)=O)C(C)C)[nH]4)cc3)cc2)[nH]1)C(C)C [AA_300_ENDOA2] | 10 to 100 | 0.101 to 1 | > 1
11 | CCOC(=O)CNC(=O)[C@@H](NC(=O)[C@@H]1[C@@H]2CC[C@@H](C2)[C@H]1c1ncc(-c2ccc(-c3ccc(-c4cnc([C@@H]5CCCN5C(=O)[C@@H](NC(=O)OC)C(C)C)[nH]4)cc3)cc2)[nH]1)C(C)C [AA_301_ENDOA2] | 10 to 100 | 0.101 to 1 | > 1
12 | COC(=O)N[C@H](C(=O)N1CCCC1c1ccc(-c2ccc(-c3ccc(-c4ccc(C5CCCN5C(=O)[C@@H](NC(=O)OC)C(C)C)[nH]4)cc3)cc2)[nH]1)C(C)C (stereo partly drawn) [AG_011] | 10 to 100 | 0.001 to 0.1 | > 1
13 | COC(=O)N[C@H](C(=O)N1CCCC1c1ncc(-c2ccc(-c3ccc(-c4[nH]c(C5CCCN5C(=O)[C@@H](NC(=O)OC)C(C)C)c5c4CCCC5)cc3)cc2)[nH]1)C(C)C (stereo partly drawn) [AG_014] | 10 to 100 | 0.101 to 1 | > 10
14 | COC(=O)N[C@H](C(=O)N1CCCC1c1ncc(-c2ccc(-c3ccc(-c4[nH]c([C@@H]5CCCN5C(=O)[C@@H](NC(=O)OC)C(C)C)c5c4CCC5)cc3)cc2)[nH]1)C(C)C (stereo partly drawn) [AG_014_A] | 1 to 10 | 0.001 to 0.1 | > 10
15 | COC(=O)N[C@H](C(=O)N1CCC[C@H]1c1ncc(-c2ccc(-c3ccc(-c4[nH]c([C@@H]5CCCN5C(=O)[C@@H](NC(=O)OC)C(C)C)c5c4CCCC5)cc3)cc2)[nH]1)C(C)C [AG_015_A] | 10 to 100 | 0.001 to 0.1 | > 1
16 | COC(=O)N[C@H](C(=O)N1CCCC1c1ccc(-c2ccc(-c3ccc(-c4cnc([C@@H]5COC(C)(C)N5C(=O)[C@@H](NC(=O)OC)C(C)C)[nH]4)cc3)cc2)[nH]1)C(C)C (stereo partly drawn) [AG_022] | 10 to 100 | 0.101 to 1 | > 10

Row | Compound | EC50 [1] [nM] | EC50 [2] [nM] | CC50 at 3 days [3] [nM]
17 | COC(=O)N[C@H](C(=O)N1CCC[C@H]1c1[nH]c(-c2ccc(-c3ccc(-c4[nH]c([C@@H]5CCCN5C(=O)[C@@H](NC(=O)OC)C(C)C)c5c4CCC5)cc3)cc2)c2c1CCC2)C(C)C [AG_026_A] | 10 to 100 | 0.101 to 1 | > 10
18 | COC(=O)NC(C(=O)N1CCCC1c1[nH]c(-c2ccc(-c3ccc(-c4cnc([C@@H]5CCCN5C(=O)[C@@H](NC(=O)OC)C(C)C)[nH]4)cc3)cc2)c2c1CCCC2)C1CCOC1 (stereo partly drawn) [AG_027] | 10 to 100 | 0.101 to 1 | > 10
19 | COC(=O)N[C@H](C(=O)N1CCCC1c1ccc(-c2ccc(-c3ccc(-c4cnc([C@@H]5CCCN5C(=O)[C@@H](NC(=O)OC)C5CCOC5)[nH]4)cc3)cc2)[nH]1)C(C)C (stereo partly drawn) [AG_054] | 0.101 to 1 | 0.001 to 0.1 | > 10
20 | COC(=O)N[C@H](C(=O)N1CCCC1c1[nH]c(-c2ccc(-c3ccc(-c4cnc([C@@H]5CCCN5C(=O)[C@@H](NC(=O)OC)C(C)C)[nH]4)cc3)cc2)c2c1COC2)C(C)C (stereo partly drawn) [AG_060] | 0.101 to 1 | 0.001 to 0.1 | > 1
21 | COC(=O)N[C@H](C(=O)N1CCC[C@H]1c1ncc(-c2ccc(-c3ccc(-c4[nH]c([C@@H]5CCCN5C(=O)[C@@H](NC(=O)OC)C(C)C)c5c4COC5)cc3)cc2)[nH]1)C(C)C [AG_060_B] | 0.001 to 0.1 | 0.001 to 0.1 | > 10
22 | COC(=O)N[C@H](C(=O)N1CCC[C@H]1c1ccc(-c2ccc(-c3ccc(-c4cnc([C@@H]5CCCN5C(=O)[C@@H](NC(=O)OC)[C@@H](C)OC)[nH]4)cc3)cc2)[nH]1)C(C)C [AG_061_A] | 0.101 to 1 | 0.001 to 0.1 | > 1
23 | COC(=O)N[C@H](C(=O)N1CCC[C@@H]1c1ccc(-c2ccc(-c3ccc(-c4cnc([C@@H]5CCCN5C(=O)[C@@H](NC(=O)OC)[C@@H](C)OC)[nH]4)cc3)cc2)[nH]1)C(C)C [AG_061_B] | 0.101 to 1 | 0.001 to 0.1 | > 10
24 | COC(=O)N[C@H](C(=O)N1CCC[C@H]1c1nc2cc(-c3ccc(-c4[nH]c([C@@H]5CCCN5C(=O)[C@@H](NC(=O)OC)C(C)C)c5c4CCC5)cc3)ccc2[nH]1)C(C)C [AG_063] | 10 to 100 | 0.001 to 0.1 | > 1
25 | COC(=O)N[C@H](C(=O)N1CCC[C@H]1c1[nH]c(-c2ccc(-c3ccc(-c4cnc([C@@H]5CCCN5C(=O)[C@@H](NC(=O)OC)[C@@H](C)OC)[nH]4)cc3)cc2)c2c1CCC2)C(C)C [AG_066] | 1 to 10 | 0.001 to 0.1 | > 1
26 | COC(=O)N[C@H](C(=O)N1CCC[C@H]1c1[nH]c(-c2ccc(-c3ccc(-c4cnc([C@@H]5CCCN5C(=O)[C@@H](NC(=O)OC)[C@@H](C)OC)[nH]4)cc3)cc2)c2c1CCCC2)C(C)C [AG_067] | 10 to 100 | 0.001 to 0.1 | > 1
27 | COC(=O)NC(C(=O)N1CCC[C@H]1c1[nH]c(-c2ccc(-c3ccc(-c4cnc([C@@H]5CCCN5C(=O)[C@@H](NC(=O)OC)[C@@H](C)OC)[nH]4)cc3)cc2)c2c1CCC2)[C@@H](C)OC (stereo partly drawn) [AG_068_A] | 1 to 10 | 0.001 to 0.1 | > 1
28 | COC(=O)NC(C(=O)N1CCC[C@@H]1c1[nH]c(-c2ccc(-c3ccc(-c4cnc([C@@H]5CCCN5C(=O)[C@@H](NC(=O)OC)[C@@H](C)OC)[nH]4)cc3)cc2)c2c1CCC2)[C@@H](C)OC (stereo partly drawn) [AG_068_B] | 10 to 100 | 0.101 to 1 | > 1
29 | COC(=O)N[C@H](C(=O)N1CCC[C@H]1c1ccc(-c2ccc(-c3ccc(-c4cnc([C@@H]5CC6(CN5C(=O)[C@H](NC(=O)OC)C(C)C)OCC(C)(C)CO6)[nH]4)cc3)cc2)[nH]1)C(C)C [AG_076] | 10 to 100 | 0.001 to 0.1 | > 5
30 | COC(=O)N[C@H](C(=O)N1CCC[C@H]1c1[nH]c(-c2ccc(-c3ccc(-c4cnc([C@@H]5CCCN5C(=O)[C@@H](NC(=O)OC)[C@@H](C)OC)[nH]4)cc3)cc2)c2c1COC2)C(C)C [AG_077] | 0.001 to 0.1 | 0.001 to 0.1 | > 5
31 | COC(=O)N[C@H](C(=O)N1CCC[C@H]1c1ncc(-c2ccc(-c3ccc(-c4[nH]c([C@@H]5CCCN5C(=O)[C@@H](NC(=O)OC)[C@@H](C)OC)c5c4CCCC5)cc3)cc2)[nH]1)C(C)C [AG_078_A] | 10 to 100 | 0.001 to 0.1 | > 5
32 | COC(=O)N[C@H](C(=O)N1CCC[C@H]1c1ncc(-c2ccc(-c3ccc(-c4[nH]c([C@H]5CCCN5C(=O)[C@@H](NC(=O)OC)[C@@H](C)OC)c5c4CCCC5)cc3)cc2)[nH]1)C(C)C [AG_078_B] | 10 to 100 | 0.101 to 1 | > 5
